Measured values as given in patent US20240132484A1, “BROAD SPECTRUM ANTIVIRAL COMPOUNDS TARGETING THE SKI COMPLEX” (priority 2020, published 2024).
Where “and” joins values, the source holds several entries; their conditions need not be identical. Identical values can stand only once. Like-named read-outs stand apart in the source and are kept apart here.

Tests used:
[1] = test system: cells (nuclei count); conditions: for Relative cell count to DMSO controls, Average 1 μM / Relative cell count to DMSO controls, Average 5 μM / Relative cell count to DMSO controls, Average 10 μM / Relative cell count to DMSO controls, Average 25 μM / Relative cell count to DMSO controls, Average 50 μM: toxicity data, 100=DMSO control; for Relative cell count to DMSO controls, Average (for correlation analysis): average value over the 5 tested concentrations (1 to 50 uM)
[2] = test system: SARS2; format: cell-based, SARS-CoV-2; conditions: for Percentage Inhibition Average 1 μM / Screening data (Relative infection to DMSO controls) Average 1 μM: SARS2, 1 μM; for Screening data (Relative infection to DMSO controls) Average 1 μM / Screening data (Relative infection to DMSO controls) Average 5 μM / Screening data (Relative infection to DMSO controls) Average 10 μM / Screening data (Relative infection to DMSO controls) Average 25 μM / Screening data (Relative infection to DMSO controls) Average 50 μM / Average (relative infection to DMSO over the 5 tested concentrations): 100=DMSO control; for Percentage Inhibition Average 5 μM / Screening data (Relative infection to DMSO controls) Average 5 μM: SARS2, 5 μM; for Percentage Inhibition Average 10 μM / Screening data (Relative infection to DMSO controls) Average 10 μM: SARS2, 10 μM; for Percentage Inhibition Average 25 μM / Screening data (Relative infection to DMSO controls) Average 25 μM: SARS2, 25 μM; for Percentage Inhibition Average 50 μM / Screening data (Relative infection to DMSO controls) Average 50 μM: SARS2, 50 μM; for Average (relative infection to DMSO over the 5 tested concentrations): SARS2, average over 1 to 50 uM; for Percentage Infection Relative to Appropriate DMSO Control: avg background subtraction

Question: `COc1ccc(-c2[nH]ncc2C(=O)NCC2CCCCC2)cc1OC` [SILCS52] was tested. Which “Relative cell count to DMSO controls, Average 1 μM” value [1] did it give?
Answer: The value was 103.3.

Question: And the “Relative cell count to DMSO controls, Average 5 μM” value [1]?
Answer: The value was 97.63.

Question: What about the “Relative cell count to DMSO controls, Average 10 μM” value [1] of the same molecule?
Answer: Its value is 97.92.

Question: What about the “Relative cell count to DMSO controls, Average 25 μM” value [1] of the same molecule?
Answer: The value was 94.91.

Question: And the “Relative cell count to DMSO controls, Average 50 μM” value [1]?
Answer: The value was 81.04.

Question: What about the “Relative cell count to DMSO controls, Average (for correlation analysis)” value [1] of the same molecule?
Answer: The value was 94.96.

Question: And the “Percentage Inhibition Average 1 μM” value [2]?
Answer: The value was 7.72%.

Question: And the “Screening data (Relative infection to DMSO controls) Average 1 μM” value [2]?
Answer: Its value is 92.28.

Question: And the “Percentage Inhibition Average 5 μM” value [2]?
Answer: Its value is −17.76%.

Question: And the “Screening data (Relative infection to DMSO controls) Average 5 μM” value [2]?
Answer: The value was 117.76.

Question: And the “Percentage Inhibition Average 10 μM” value [2]?
Answer: Its value is −4.43%.

Question: What about the “Screening data (Relative infection to DMSO controls) Average 10 μM” value [2] of the same molecule?
Answer: The value was 104.43.

Question: What about the “Percentage Inhibition Average 25 μM” value [2] of the same molecule?
Answer: The value was −20.98%.

Question: What about the “Screening data (Relative infection to DMSO controls) Average 25 μM” value [2] of the same molecule?
Answer: Its value is 120.98.

Question: What about the “Percentage Inhibition Average 50 μM” value [2] of the same molecule?
Answer: Its value is −22.98%.

Question: And the “Screening data (Relative infection to DMSO controls) Average 50 μM” value [2]?
Answer: The value was 122.98.

Question: What about the “Average (relative infection to DMSO over the 5 tested concentrations)” value [2] of the same molecule?
Answer: Its value is 111.69.

Question: For `CCOc1cccc(CNCCc2ccccc2F)c1OCC(O)CN1CCN(C)CC1` (centres unmarked) [SILCS3], which “Relative cell count to DMSO controls, Average 1 μM” value [1] is on record?
Answer: Its value is 114.7.

Question: What about the “Relative cell count to DMSO controls, Average 5 μM” value [1] of the same molecule?
Answer: The value was 125.56.

Question: What about the “Relative cell count to DMSO controls, Average 10 μM” value [1] of the same molecule?
Answer: The value was 124.47.

Question: What about the “Relative cell count to DMSO controls, Average 25 μM” value [1] of the same molecule?
Answer: Its value is 117.43.

Question: And the “Relative cell count to DMSO controls, Average 50 μM” value [1]?
Answer: The value was 86.97.

Question: And the “Toxicity Data, Average, Mean” value ([1]; Average of Exp 1-3, n 9, 1 uM)?
Answer: The value was 114.70%.

Question: And the “Toxicity Data, Average, Mean” value ([1]; Average of Exp 1-3, n 9, 5 uM)?
Answer: Its value is 125.56%.

Question: What about the “Toxicity Data, Average, Mean” value ([1]; Average of Exp 1-3, n 9, 10 uM) of the same molecule?
Answer: The value was 124.47%.

Question: And the “Toxicity Data, Average, Mean” value ([1]; Average of Exp 1-3, n 9, 25 uM)?
Answer: Its value is 117.43%.

Question: And the “Toxicity Data, Average, Mean” value ([1]; Average of Exp 1-3, n 9, 50 uM)?
Answer: The value was 86.97%.

Question: And the “Toxicity Data, nuclei count relative to DMSO controls” value ([1]; Exp 1 (SMW454), 1 uM)?
Answer: Its value is 108.7% and 108.1% and 97.2%.

Question: And the “Toxicity Data, nuclei count relative to DMSO controls” value ([1]; Exp 1 (SMW454), 5 uM)?
Answer: The value was 105.8% and 104.1% and 93.5%.

Question: And the “Toxicity Data, nuclei count relative to DMSO controls” value ([1]; Exp 1 (SMW454), 10 uM)?
Answer: Its value is 112.5% and 109.3% and 98.7%.

Question: What about the “Toxicity Data, nuclei count relative to DMSO controls” value ([1]; Exp 1 (SMW454), 25 uM) of the same molecule?
Answer: Its value is 102.5% and 101.9% and 95.9%.

Question: And the “Toxicity Data, nuclei count relative to DMSO controls” value ([1]; Exp 1 (SMW454), 50 uM)?
Answer: The value was 93.7% and 93.9% and 95.7%.

Question: What about the “Toxicity Data, nuclei count relative to DMSO controls” value ([1]; Exp 2 (SMW466), 1 uM) of the same molecule?
Answer: The value was 110.2% and 122.4% and 99.6%.

Question: And the “Toxicity Data, nuclei count relative to DMSO controls” value ([1]; Exp 2 (SMW466), 5 uM)?
Answer: The value was 143.6% and 141.9% and 102.7%.

Question: And the “Toxicity Data, nuclei count relative to DMSO controls” value ([1]; Exp 2 (SMW466), 10 uM)?
Answer: Its value is 139.8% and 146.3% and 105.1%.

Question: And the “Toxicity Data, nuclei count relative to DMSO controls” value ([1]; Exp 2 (SMW466), 25 uM)?
Answer: Its value is 131.0% and 122.3% and 75.1%.

Question: And the “Toxicity Data, nuclei count relative to DMSO controls” value ([1]; Exp 2 (SMW466), 50 uM)?
Answer: Its value is 81.8% and 76.6% and 53.5%.

Question: What about the “Toxicity Data, nuclei count relative to DMSO controls” value ([1]; Exp 3 (SMW480), 1 uM) of the same molecule?
Answer: Its value is 131.1% and 136.5% and 118.6%.

Question: What about the “Toxicity Data, nuclei count relative to DMSO controls” value ([1]; Exp 3 (SMW480), 5 uM) of the same molecule?
Answer: The value was 154.5% and 147.8% and 136.1%.

Question: And the “Toxicity Data, nuclei count relative to DMSO controls” value ([1]; Exp 3 (SMW480), 10 uM)?
Answer: Its value is 156.3% and 129.5% and 122.8%.

Question: What about the “Toxicity Data, nuclei count relative to DMSO controls” value ([1]; Exp 3 (SMW480), 25 uM) of the same molecule?
Answer: Its value is 157.9% and 155.8% and 114.5%.

Question: What about the “Toxicity Data, nuclei count relative to DMSO controls” value ([1]; Exp 3 (SMW480), 50 uM) of the same molecule?
Answer: Its value is 117.7% and 89.8% and 80.0%.

Question: What about the “Relative cell count to DMSO controls, Average (for correlation analysis)” value [1] of the same molecule?
Answer: Its value is 113.83.

Question: And the “Percentage Infection Relative to Appropriate DMSO Control” value ([2]; 1 uM, Exp 1 (SMW454), single wells)?
Answer: Its value is 102.18% and 96.08% and 79.31%.

Question: And the “Percentage Infection Relative to Appropriate DMSO Control” value ([2]; 5 uM, Exp 1 (SMW454), single wells)?
Answer: Its value is 110.38% and 99.87% and 94.40%.

Question: What about the “Percentage Infection Relative to Appropriate DMSO Control” value ([2]; 10 uM, Exp 1 (SMW454), single wells) of the same molecule?
Answer: Its value is 98.93% and 87.99% and 82.55%.

Question: What about the “Percentage Infection Relative to Appropriate DMSO Control” value ([2]; 25 uM, Exp 1 (SMW454), single wells) of the same molecule?
Answer: The value was 73.36% and 69.10% and 58.07%.

Question: And the “Percentage Infection Relative to Appropriate DMSO Control” value ([2]; 50 uM, Exp 1 (SMW454), single wells)?
Answer: Its value is 38.76% and 39.55% and 35.10%.

Question: And the “Infection Data, Average, Mean” value ([2]; Average of Exp 1-3, n 9, 1 uM)?
Answer: Its value is 77.07%.

Question: And the “Infection Data, Average, Mean” value ([2]; Average of Exp 1-3, n 9, 5 uM)?
Answer: The value was 48.45%.

Question: What about the “Infection Data, Average, Mean” value ([2]; Average of Exp 1-3, n 9, 10 uM) of the same molecule?
Answer: Its value is 46.02%.

Question: What about the “Infection Data, Average, Mean” value ([2]; Average of Exp 1-3, n 9, 25 uM) of the same molecule?
Answer: The value was 22.24%.

Question: What about the “Infection Data, Average, Mean” value ([2]; Average of Exp 1-3, n 9, 50 uM) of the same molecule?
Answer: The value was 12.53%.

Question: And the “Percentage Infection Relative to Appropriate DMSO Control” value ([2]; Exp 2 (SMW466), 1 uM)?
Answer: The value was 97.83% and 85.97% and 85.21%.

Question: And the “Percentage Infection Relative to Appropriate DMSO Control” value ([2]; Exp 2 (SMW466), 5 uM)?
Answer: Its value is 25.85% and 18.37% and 25.06%.

Question: And the “Percentage Infection Relative to Appropriate DMSO Control” value ([2]; Exp 2 (SMW466), 10 uM)?
Answer: The value was 15.71% and 12.38% and 8.39%.

Question: What about the “Percentage Infection Relative to Appropriate DMSO Control” value ([2]; Exp 2 (SMW466), 25 uM) of the same molecule?
Answer: The value was −2.25% and −2.53% and 0.99%.

Question: What about the “Percentage Infection Relative to Appropriate DMSO Control” value ([2]; Exp 2 (SMW466), 50 uM) of the same molecule?
Answer: Its value is −2.52% and −3.00% and 0.03%.

Question: And the “Percentage Infection Relative to Appropriate DMSO Control” value ([2]; Exp 3 (SMW480), 1 uM)?
Answer: Its value is 55.68% and 51.29% and 40.12%.

Question: And the “Percentage Infection Relative to Appropriate DMSO Control” value ([2]; Exp 3 (SMW480), 25 uM)?
Answer: The value was 6.43% and −0.12% and −2.91%.

Question: And the “Percentage Inhibition Average 1 μM” value [2]?
Answer: Its value is 22.93%.

Question: What about the “Screening data (Relative infection to DMSO controls) Average 1 μM” value [2] of the same molecule?
Answer: The value was 77.07.

Question: And the “Percentage Inhibition Average 5 μM” value [2]?
Answer: Its value is 51.55%.

Question: What about the “Screening data (Relative infection to DMSO controls) Average 5 μM” value [2] of the same molecule?
Answer: Its value is 48.45.

Question: What about the “Percentage Inhibition Average 10 μM” value [2] of the same molecule?
Answer: The value was 53.98%.

Question: What about the “Screening data (Relative infection to DMSO controls) Average 10 μM” value [2] of the same molecule?
Answer: Its value is 46.02.

Question: What about the “Percentage Inhibition Average 25 μM” value [2] of the same molecule?
Answer: The value was 77.76%.

Question: What about the “Screening data (Relative infection to DMSO controls) Average 25 μM” value [2] of the same molecule?
Answer: The value was 22.24.

Question: What about the “Percentage Inhibition Average 50 μM” value [2] of the same molecule?
Answer: The value was 87.47%.

Question: And the “Screening data (Relative infection to DMSO controls) Average 50 μM” value [2]?
Answer: Its value is 12.53.

Question: And the “Average (relative infection to DMSO over the 5 tested concentrations)” value [2]?
Answer: Its value is 41.26.
